Series [1] has as its system patients with treatment-resistant depression. Kind of series: Randomized controlled trial of ketamine infusion and automated self-association training (ASAT/NT): MADRS depression severity. The series is classed as in vivo, human. The source says:
Participants. To achieve the initial recruitment target of n=150 patients, the study enrolled and randomized n=154 patients, continuing enrollment until a final sample was acquired that included the full target of n=150 patients who completed, at a minimum, (1) an infusion day, (2) a 24-hour assessment visit, and (3) ≥75% of intended Cognitive Training (active or sham NT) visits. All n=154 randomized patients were included in the reported intent-to-treat analyses. In particular, 154 adult (age 18-60) patients reporting moderate-to-severe levels of depression [Montgomery-Asberg Depression Rating Scale (MADRS; [Montgomery S A, Asberg M: A new depression scale designed to be sensitive to change. Br J Psychiatry. 1979; 134:382-9]) score 25], lower-than-normative self-reported self-esteem [i.e., scoring outside of 1SD from the normative mean on the Cognitive Triad Inventory [Beckham E E, Leber W R, Watkins J T, Boyer J L, Cook J B: Development of an instrument to measure Beck's cognitive triad: the Cognitive Triad Inventory. J Consult Clin Psychol. 1986; 54(4):566-7]“self” subscale [Anderson K W, Skidmore J R: Empirical analysis of factors in depressive cognition: the cognitive triad inventory. J Clin Psychol. 1995; 51(5):603-9; Possel P: Cognitive Triad Inventory (CTI): psychometric properties and factor structure of the German translation. J Behav Ther Exp Psychiatry. 2009; 40(2):240-7] and/or the Rosenberg Self-Esteem Scale], and at least one failed, adequate trial of an FDA-approved antidepressant medication in the current depressive episode (per Antidepressant Treatment Response Questionnaire; ATRQ [Chandler G M, losifescu DV, Pollack M H, Targum S D, Fava M: RESEARCH: Validation of the Massachusetts General Hospital Antidepressant Treatment History Questionnaire (ATRQ). CNS Neurosci Ther. 2010; 16(5):322-5]), were recruited and randomized. Any existing depression treatment regimens were required to be stably maintained beginning 4 weeks prior to screening and throughout the trial. See FIG. 10, Table S1 and Examples 6-8 below for sample characteristics.
Assessment Timeline. An experienced, Master's level clinical rater (CRS) administered the MADRS, the study's pre-specified primary endpoint throughout the acute (30-day) study period, to assess overall depression severity. The measure was repeated at screening (used for eligibility determinations only), pre-infusion baseline (infusion −1 hour; the clinical rater then left and was not present during any intervention procedure), infusion +24 hours (prior to the first session of active/sham NT), +5, +12, +21, and +30 days. […] This study also contemplates including and analyzing neurocognitive (e.g., neuroimaging; performance-based) assessments of ketamine's impact. Adequacy of both patient and rater blinding, for both infusion and NT allocation, was assessed by self-report using a 0-100 sliding scale (0=definitely placebo/sham; 50=1 don't know; 100=definitely ketamine/active) at infusion+30 days.
Interventions. A randomization table using permuted blocks of 3 or 6, stratified by (1) biological sex at birth and (2) modest vs. severe treatment resistance (severe=≥3 FDA-approved antidepressant trials in episode, per ATRQ), was generated by an independent statistical consultant at study start and maintained by the study pharmacist, who, at the point of randomization, conveyed the NT allocation (but not the infusion allocation) to a single study staff member who was assigned to that patient. This single staff member was tasked with opening the correct computer program to deliver the NT sessions to that patient, but was not involved in, nor present for, any outcome ratings. Blinding for all other study personnel was maintained until after the final patient's Day 30 assessment was complete.
Infusion. Participants were randomized 2:1 to ketamine (0.5 mg/kg over 40 min) or saline (50 ml 0.9% Sodium Chloride over 40 min) infusion. […]

Series [2] shares this test system. Kind of series: Adverse event monitoring after infusion in the trial. It counts as in vivo, human. The conditions noted are these: 0.5 mg/kg over 40 min infusion, monitoring for 4 hours post-infusion. Here is the method: Infusion. Participants were randomized 2:1 to ketamine (0.5 mg/kg over 40 min) or saline (50 ml 0.9% Sodium Chloride over 40 min) infusion. All infusions were administered by blinded, licensed nurses in a medical hospital setting with a linked ACLS-certified team, with blinded study physician (RHH) oversight and safety/adverse event monitoring sustained for 4-hours post-infusion.

The test system of another series is depressed patients. The conditions noted are these: cited from earlier work.
Where [3] appears, read: 24 hours post-infusion, ketamine vs saline.

On to `CNC1(c2ccccc2Cl)CCCCC1=O` (centres unmarked) [ketamine], for which, in series [1] (24 hours post-infusion), the “remitter rate (MADRS≤9)” value amounted to 28% and the “responder rate (≥50% decrease from pre-infusion MADRS baseline)” value is listed as 52%. Besides, in series [1] (setting [3]), the NNT for remission came out at 4.2 and the “number-needed-to-treat (NNT) for response” value is reported as 3.7. The “MADRS total depression score, group by time interaction, standardized β” value in series [1] (infusion phase, pre-infusion to 24 hours post-infusion, ketamine 0.5 mg/kg over 40 min vs saline) is −1.30. Moreover, the “duration of the rapid antidepressant effect of a single infusion extended by Cognitive Training” value in series [1] (single ketamine infusion followed by 8 sessions of Cognitive Training) is listed as “at least 30 days”. For the same compound, the adverse events result in series [2] is given as “mild-to-moderate, time-limited”. Moreover, the “response rates in depressed patients” value in the series with depressed patients (as early as 2 hours post-ketamine) is 55-80%. The “time within which symptoms are dramatically reduced” value with depressed patients (intravenous ketamine) was 2 to 24 h. In the series with depressed patients (prior published work), the “duration of improvements provided by a single infusion in isolation” value was 1-2 week. Further, the “time after which effects of a single infusion dissipate” value with depressed patients (single infusion) was 3 to 7 days.

(Values after patent US20250186734A1, “METHODS AND SYSTEMS FOR AUTOMATED NEUR[…] TO EXTEND RELIEF OF TREATMENT-RESISTANT MENTAL DISORDERS” (UNIVERSITY OF PITTSBURGH-OF THE COMMONWEALTH SYSTEM OF …, priority 2022, published 2025).)
